In PMC5711933, “Intracellular biomass flocculation as a key mechanism of rapid bacterial killing by cationic, amphipathic antimicrobial peptides and peptoids” (Scientific Reports, 2017):
Non-standard residues stand in square brackets, D forms with d. Residues, ends and D or L forms follow the SMILES beside them. Nspe = C[C@H](NCC(=O)O)c1ccccc1; Nlys = NCCCCNCC(=O)O

Columns and labels:
[1] = RP-HPLC elution (% ACN) as measure of hydrophobicity; format: physicochemical; conditions: chromatographic hydrophobicity; gradient of 5–95% acetonitrile (ACN) over 45 minutes, C18 column, 0.2 mL/min; average of three replicates
[2] = test system: Erythrocytes; assay: Hemolysis assay; format: cell-based; conditions: human erythrocytes in PBS pH 7.4, 1 h at 37 °C, A350; three independent replicates (two for LL-37 and fowlicidin-1)
Protocol: The plate was then centrifuged at 1200 g for 15 min, 100 μL of the supernatant from each well transferred to a fresh microtiter plate, and A350 measured.

[3] = test system: E. coli ATCC 35218; assay: Bacterial count by plating after 1-hour treatment, before SEM sample preparation; format: cell-based; conditions: 1 hour in PBS, control 5 × 10^5 CFU/mL
Protocol: E. coli was treated with 10 μM peptide or peptoid for 1 hour in phosphate-buffered saline (PBS). […] We used 10 μM peptide/peptoid for all samples since it is near the MICs of the majority of the oligomers.
Before fixation, aliquots of each samples were serially diluted and plated on agar to determine the concentration of live bacteria remaining after the 1-hour treatment. […] (1) SEM samples were treated in PBS (as discussed above), whereas MIC assays are performed in cation-adjusted Mueller-Hinton broth. AMPs and ampetoids are known to interact with ions in the media (for example, when switching from plain Mueller-Hinton broth to cation-adjusted Mueller-Hinton broth)[1], so differences in activity may be due to changes in media composition. (2) the treatments were for one hour only, whereas MICs are determined after 16 hours of growth. […] (3) Some of these compounds may cause inhibition of growth without causing bacterial cell death (i.e., they are bacteriostatic—which is what the MIC indicates—rather than bactericidal—which is determined by plating and counting colonies). […]
Overnight cultures of E. coli ATCC 35218 were centrifuged for 10 min and 2500 × g at room temperature, then resuspended in PBS. […] Bacterial concentrations of the diluted suspensions were calculated from their OD590 values using optical density curves derived from pre-determined concentrations. […]

[4] = test system: EGFP-Luc plasmid; assay: DNA retardation assay (gel electrophoresis); format: binding; conditions: EGFP-Luc plasmid in TBS, complexes 20 min at room temperature, 1–2% agarose gel
Protocol: DNA retardation was analyzed by gel electrophoresis. Peptoid/peptide-DNA complexes were formed by adding 10 µL of peptide/peptoid solution of varying concentrations to 10 µL DNA solution (EGFP-Luc plasmid in Tris-buffered saline (TBS) buffer), and the resulting solution was mixed by gentle aspiration. Complexes were incubated for 20 min at room temperature. After complex formation, 20 µL of each sample were loaded onto a 1–2% agarose gel in Tris/borate/EDTA (TBE) buffer, which ran at 120 V for 15 min. DNA bands on the gel were visualized under UV light by ethidium bromide staining.

[5] = test system: Bioluminescent P. aeruginosa; format: cell-based, Pseudomonas aeruginosa; conditions: 12.5 µM, LB, 37 °C, 10 min; average of three independent experiments with two replicates each
Protocol: The decrease in bioluminescence at 37 °C was measured for a range of concentrations from 0 – 100 μM (Supp. Figs. S6 and S7).
Bioluminescent P. aeruginosa [73] was grown at 37 °C in Luria-Bertani (LB) broth. […] In a 96-well plate, 50 µL of P. aeruginosa solution (1 × 10^6 CFU/mL) was added to 50 µL of antimicrobial solution, and the bioluminescence was measured using an IVIS imaging system (a Xenogen product from Caliper Life Sciences, Hopkinton, MA) at 10 min intervals for 2 h. The reported values are the average of three independent experiments with two replicates each.

[6] = test system: E. coli ATCC 35218; assay: Bacterial count by plating after treatment, before TEM sample preparation; format: cell-based
Protocol: E. coli ATCC 35218, grown overnight at 35 °C in Mueller-Hinton broth (MHB), were resuspended in 1X (150 mM) PBS, pH 7.4, and diluted to a concentration of 1 × 10^8 CFU/mL. Aqueous peptide/peptoid stock solutions were added to 1 mL aliquots of the suspension to the desired final concentration. After 1 hour, small volumes of each sample were serially diluted, plated, and incubated overnight at 35 °C, to be counted the following day. The remaining volume of each sample was centrifuged, and the pellet resuspended and enrobed in 5–10 µL of 2% low-melting agarose (gelling temperature 25° ± 5 °C) then drawn up into the tip of a Pasteur pipette. The solidified rods were extruded into fixative (2% glutaraldehyde, 2% paraformaldehyde, 50 mM PBS, pH 7.4). […] 50 nm thin sections of embedded samples were cut using a diamond knife, stained for 5 min in 5% aqueous uranyl acetate, then rinsed in H2O. Sections were examined in a JEOL 1230 TEM. Experimental conditions were each repeated in at least two independent trials. For each replicate of each sample, bacteria across the thin section were first surveyed to determine morphological characteristics representative of that sample, then images were captured of at least five bacteria displaying those morphologies with an emphasis on clean (i.e., orthogonal) transverse and/or longitudinal sections. Each image shown is thus representative of the ultrastructural characteristics observed in bacteria throughout a given sample and between replicates.

[7] = test system: E. coli ATCC 35218; format: cell-based; conditions: CAMHB, 35 °C, 16 h, final 5 × 10^5 CFU/mL; reproducible between three independent replicates
Protocol: MICs were determined according to CLSI M7-A6 protocols in a 96-well microtiter plate. In test wells, 50 μL bacterial inoculum (1 × 10^6 CFU/ml) in cation-adjusted Mueller-Hinton broth (CAMHB) was added to 50 μL peptoid solution in CAMHB (prepared by 1:2 serial dilutions). Positive controls contained 50 μL inoculum and 50 μL CAMHB without peptoid. […] MIC values reported were reproducible between three independent experimental replicates, each consisting of two parallel trials.

Question: Which results are given for C[C@@H](c1ccccc1)N(CC(N)=O)C(=O)CN(C(=O)CN(CCCCN)C(=O)CN(C(=O)CN(C(=O)CN(CCCCN)C(=O)CN(C(=O)CN(C(=O)CN(CCCCN)C(=O)CN(C(=O)CN(C(=O)CNCCCCN)[C@@H](C)c1ccccc1)[C@@H](C)c1ccccc1)[C@@H](C)c1ccccc1)[C@@H](C)c1ccccc1)[C@@H](C)c1ccccc1)[C@@H](C)c1ccccc1)[C@@H](C)c1ccccc1 [compound 1] (H-[Nlys][Nspe][Nspe][Nlys][Nspe][Nspe][Nlys][Nspe][Nspe][Nlys][Nspe][Nspe]-NH2)?
Answer: % ACN at RP-HPLC elution [1]: 64.2%; HD10 (hemolytic dose; concentration for 10% hemolysis) [2]: 14 µM; HD50 (hemolytic dose; concentration for 50% hemolysis) [2]: 62 µM; SEM: Bacterial count after 10 µM treatment (% of control) [3]: 40 % of control; Retardation assay: mass of compound required to completely retard migration of 1 µg of DNA [4]: 3.0 µg; Decrease in bioluminescence within 10 min [5]: ~ 99.9%; TEM: Bacterial count after 10 µM treatment (% of control) ([6]; 10 µM, 1 hour in PBS pH 7.4, control 1 × 10^8 CFU/mL): 0.2 % of control; Bacteria remaining after 5-min treatment ([6]; 100 µM, 5 minutes): 1 × 10^4 CFU/mL; Bacteria remaining after 5-min treatment (% of bacteria in the control) ([6]; 100 µM, 5 minutes): 0.01%; TEM: Bacterial count after 100 µM treatment (% of control) ([6]; 100 µM, 1 hour in PBS pH 7.4, control 1 × 10^8 CFU/mL): 0 (0) % of control; Bacterial killing after 15-min, 30-min, and 60-min treatments ([6]; 100 µM, 15, 30 and 60 minutes): all bacteria were killed; E. coli ATCC 35218 MIC [7]: 6.3 µM
